Test results from US20070191492A1, “Method for suppressing lung tumorigenesis” (Sumitomo Chemical Company, Limited, priority 2003, published 2007).

Test system: lung tumorigenesis
Assay: multi-organ carcinogenesis model in rats: suppression of lung tumorigenesis (histopathological examination of lung)
Assay type: in vivo, male F344 rat
Conditions: for Frequency of Animals having Tumors, Adenoma (animals with tumor / animals in group) / Frequency of Animals having Tumors, Adenoma (percent) / Frequency of Animals having Tumors, Carcinoma (animals with tumor / animals in group) / Frequency of Animals having Tumors, Carcinoma (percent) / Frequency of Animals having Tumors, Sum of Tumors (animals with tumor / animals in group) / Frequency of Animals having Tumors, Sum of Tumors (percent) / Tumor Multiplicity, Carcinoma (average number of tumors per individual ± standard deviation) / Tumor Multiplicity, Adenoma (average number of tumors per individual ± standard deviation) / Tumor Multiplicity, Sum of Tumors (average number of tumors per individual ± standard deviation): lung, 23 weeks
Method: With respect to the compound 1 (13α, 14α-epoxy-3β-methoxyserratan-21β-ol) obtained in Example 1, activities for suppressing or inhibiting lung tumorigenesis were measured using a multi-organ carcinogenesis model in rats.
Diethylnitrosamine dissolved in saline was once administered interperitoneally to each male F344 rat at 6 weeks of age (Charles River Japan, Inc.) at a dose of 100 mg/kg body weight wherein this day was made to be day 1 of the testing. In succession, N-methyl-N-nitrosourea dissolved in saline was administered interperitoneally at a dose of 20 mg/kg body weight at day 4, 8, 11 and 15 of the testing (total four times of dosing). Furthermore, dimethylhydrazine dissolved in saline was administered subcutaneously at a dose of 40 mg/kg body weight at day 18, 22, 25, 29, 32 and 36 of the testing (total six times of dosing). In parallel with administration of these carcinogens, drinking water into which 0.05% N-butyl-N-(4-hydroxybutyl)nitrosamine was dissolved was allowed to ingest to the F344 rat from day 1 of the testing for the following four weeks. Thereafter, drinking water into which around 0.1% of 2, 2′-dihydroxy-di-n-propylnitrosamine was dissolved was allowed to ingest to the F344 rat for over two weeks from the beginning of week 5 to the end of week 6 of the testing. With respect to the F344 rat treated with a variety of carcinogens as described above, administration of the compound 1 was started from the beginning of week 8 of the testing. The compound 1 was dissolved into corn oil and forcibly administered orally into stomach using a sonde at a dose of 5 or 10 mg/kg body weight. The administration was implemented at a frequency of once a day, five days in a week, and continued for twenty three weeks. As a reference, untreated groups to which no compound 1 was administered were provided. After elapsed thirty weeks from starting the testing, each F344 rat had been sacrified to isolate a lung, and histopathological examination was conducted on the lung thus isolated. With respect to neoplastic lesions, they were classified into a benign or malignant lesion, and a number of animals each having a benign tumor or a malignant tumor and a number of tumors were counted in each group.

[1] = 5 mg/kg orally once a day, five days a week, examined after 30 weeks
[2] = treated group vs untreated group, in words

13α, 14α-epoxy-3β-methoxyserratan-21β-ol [Compound 1]
Frequency of Animals having Tumors, Adenoma (animals with tumor / animals in group) [1]: 11/20
Frequency of Animals having Tumors, Adenoma (percent) [1]: 55%
Frequency of Animals having Tumors, Carcinoma (animals with tumor / animals in group) (5 mg/kg orally, P < 0.05): 1/20
Frequency of Animals having Tumors, Carcinoma (percent) (5 mg/kg orally, P < 0.05): 5%
Frequency of Animals having Tumors, Sum of Tumors (animals with tumor / animals in group) (5 mg/kg orally, P < 0.05): 11/20
Frequency of Animals having Tumors, Sum of Tumors (percent) (5 mg/kg orally, P < 0.05): 55%
Tumor Multiplicity, Carcinoma (average number of tumors per individual ± standard deviation) (5 mg/kg orally, P < 0.05): 0.05 ± 0.22
Tumor Multiplicity, Adenoma (average number of tumors per individual ± standard deviation) (5 mg/kg orally, p < 0.01): 0.70 ± 0.80
Tumor Multiplicity, Sum of Tumors (average number of tumors per individual ± standard deviation) (5 mg/kg orally, p < 0.01): 0.75 ± 0.85
Frequency of Animals having Tumors, Adenoma (animals with tumor / animals in group) (10 mg/kg orally): 12/19
Frequency of Animals having Tumors, Adenoma (percent) (10 mg/kg orally): 67%
Frequency of Animals having Tumors, Carcinoma (animals with tumor / animals in group) (10 mg/kg orally): 5/19
Frequency of Animals having Tumors, Carcinoma (percent) (10 mg/kg orally): 28%
Frequency of Animals having Tumors, Sum of Tumors (animals with tumor / animals in group) (10 mg/kg orally): 13/19
Frequency of Animals having Tumors, Sum of Tumors (percent) (10 mg/kg orally): 72%
Tumor Multiplicity, Carcinoma (average number of tumors per individual ± standard deviation) (10 mg/kg orally): 0.29 ± 0.47
Tumor Multiplicity, Adenoma (average number of tumors per individual ± standard deviation) (10 mg/kg orally, P < 0.05): 1.00 ± 1.00
Tumor Multiplicity, Sum of Tumors (average number of tumors per individual ± standard deviation) (10 mg/kg orally, P < 0.05): 1.22 ± 1.06
frequency of animals each having tumor (adenoma or carcinoma) compared with the untreated group [2]: lower value
tumor multiplicity (adenoma or carcinoma) compared with the untreated group [2]: lower value
